Experimental findings from publication PMC7738880, “Identification of novel CD44v6-binding peptides that block CD44v6 and deliver a pro-apoptotic peptide to tumors to inhibit tumor growth and metastasis in mice” (Theranostics, 2021) are described below.

Series [1] addresses T1, recombinant human CD44-Fc protein (Homo sapiens, UniProt P16070).
T1 construct: Fc; purchased R&D Systems
As to the kind of experiment: SPR analysis of peptide binding to CD44-Fc. The note with it: biotin-conjugated peptide on streptavidin chip, CD44-Fc 0.125-2 µM. Here is the method: The binding affinity (KD) of CD44v6-binding peptides to the CD44v6 protein was measured using an SPR instrument (Reichert Technologies, Depew, NY). A streptavidin chip was used as the immobilization substrate and exposed to biotin-labeled peptides (25 μΜ) at 5 μL/min for 50 min. The streptavidin only surface was used for the reference surface. All SPR signals were corrected by subtraction with the response of the reference surface. After washing, the chip was flowed with a solution of CD44v6-Fc or CD44-Fc protein (R&D Systems, Minneapolis, MN) in binding buffer (137 mM NaCl, 10 mM phosphate, 2.7 mM KCl pH 7.4, 62.5 µM BSA, and 0.005% Tween-20) at concentrations of 0.125, 0.25, 0.5, 1, and 2 μM at 10 μL/min for 3 min. Five concentrations (0.125, 0.25, 0.5, 1, and 2 µM) of CD44v6-Fc and CD44-Fc were used in a single-cycle dynamic SPR measurements. Resonance units were recorded and analyzed using Scrubber 2.0 software (BioLogic Software, Campbell, Australia). KD values were calculated by analyzing the steady-state binding data by fitting the curve of binding level against concentration with a 1:1 binding model (GraphPad Prism 7.0 software).
(In general: Surface plasmon resonance follows binding to a sensor surface in real time, without labels.)

Series [2] deals with c-Met and Erk phosphorylation in MDA-MB231 cells. As to the kind of experiment: Western blotting of HGF-induced c-Met and Erk phosphorylation, MDA-MB231. The series is classed as cell-based, human. The note with it: peptide 20 µM 10 min, HGF 25 ng/mL 10 min. Here is the method: (§1) To examine c-Met and Erk phosphorylation, MDA-MB231 cells were serum-starved for 24 h, pre-treated with CD44v6-binding peptides (20 µM) for 10 min, and incubated with 25 ng/mL HGF for 10 min. After the incubation, the cell lysates were subjected to Western blotting analyses using an anti-phospho-Met rabbit monoclonal antibody (clone no. D26; Cell Signaling Technology), anti-Met mouse monoclonal antibody (clone no. 25H2, 1:1000 dilution; Cell Signaling Technology), anti-phospho-Erk1/2 rabbit monoclonal antibody (clone no. 197G2; Cell Signaling Technology), and anti-ERK1 rabbit polyclonal antibody (1:1000 dilution; Santa Cruz Biotechnology). The labeled bands on immunoblots were detected using enhanced chemiluminescence reagents (ThermoFisher Scientific).
On the technique in general: A western blot detects proteins with antibodies after separation by electrophoresis.

Series [3] has as its system 4T1-luc cells. As to the kind of experiment: 4T1-luc orthotopic spontaneous metastasis model. The series is classed as in vivo. The note with it: for tumor growth, lung metastasis, survival rate and TUNEL-stained apoptosis, peptide combined with crizotinib 12.5 mg/kg: peptide 14.2 mg/kg i.v. plus crizotinib 12.5 mg/kg oral, versus crizotinib alone 25 mg/kg; for primary tumor growth, lung metastasis and survival, peptide combined with crizotinib 25 mg/kg: peptide 14.2 mg/kg i.v. plus crizotinib 25 mg/kg oral, versus single treatment; for luminescence signals and total photon flux from the whole body: n = 6/group; for number of lung tumor nodules: relative to saline and control peptide; for hematologic parameters and liver and kidney functional marker levels: peptide alone or in combination with crizotinib, compared with control peptide, n = 3/group. The method, then: 4T1-luc cells (1 × 10^6 cells) were orthotopically inoculated into the mammary fat pads in 6-week-old female BALB/c mice. Panc-1 cells (1 × 10^6 cells) were subcutaneously inoculated into lower right flank in 6-week-old female BALB/c nude mice To monitor 4T1-luc tumor growth, mice were intraperitoneally injected with D-luciferin (150 mg/kg body weight), incubated for 10 min, and subjected to a whole-body bioluminescence imaging using the IVIS imaging system (Perkin Elmer). At two weeks after the inoculation, mice were randomly sorted into groups based on the luminescence intensity (4T1-luc) or tumor size (Panc-1). CD44v6-binding peptides were administered intravenously to 4T1 tumor-bearing mice (n = 6 per group) through the tail vein (14.2 mg/kg body weight, thrice weekly for three weeks) alone or in combination with crizotinib. Crizotinib in 5% DMSO was administered orally (12.5 and 25 mg/kg body weight, twice weekly for three weeks). CD44v6-targeted pro-apoptotic peptides or CD44v6-binding peptides and pro-apoptotic peptide in combination were intravenously administered to 4T1 or Panc-1 tumor-bearing mice (n = 10 per group) through the tail vein (10 mg/kg body weight, thrice weekly for 3 weeks). Primary tumor growth was monitored by measuring tumor volumes using a caliper and total photon flux in the whole body using the IVIS imaging system. The body weights and tumor ulceration were monitored throughout the treatment period. At the end of the treatments, half of the mice were used for the collection of blood, sacrificed, and the primary tumor weights and numbers of metastatic tumor nodules in the isolated lungs were determined. The remaining mice were maintained until death to determine the survival rates. The hematological parameters and liver and kidney function markers in plasma and serum samples were analyzed as described above. The normal ranges of hematological parameters of the BALB/c mouse and BALB/c nude mouse were obtained from Charles River Laboratories website (www.criver.com).

In series [4] the test system is 4T1 cells. As to the kind of experiment: Saturation cell binding assay, 4T1. As to conditions: biotin-labeled peptide 0-256 µM, 4 °C, 1 h. Details: species or system mouse. The method, then: (§2) Supplementary Information
(§3) Supplementary Materials and Methods
(§4) Saturation binding assays to determine the cellular binding affinities of peptides Cells (5 × 10^3 cells per well in a 96-well plate) were incubated with 1% bovine serum albumin (BSA) for 30 min and with different concentrations of biotin-labeled peptides (0, 2, 4, 8, 16, 32, 64, 128, and 256 µM) at 4 °C for 1 h. After washing, the cells were incubated with horseradish peroxidase-conjugated neutravidin (1:10,000 dilution; ThermoFisher Scientific, Waltham, MA) for 30 min at room temperature. Enzymatic activity was detected using a 3,3ʹ,5,5ʹ-tetramethylbenzidine substrate (ThermoFisher Scientific), and the reaction was stopped using 2 M sulfuric acid. The absorbance at 450 nm was measured in each well using a microplate reader (Tecan, Mannedorf, Switzerland). The KD values were then calculated using GraphPad Prism 6 software (GraphPad Inc., La Jolla, CA). […]
(§5) 10 µM biotin-labeled CD44v6-binding peptides at 4 °C for 1 h. […]
(§6) Scientific) for 30 min at room temperature. […]

In series [5] the test system is MCF7 cells. As to the kind of experiment: Saturation cell binding assay, MCF7. Set-up: species or system human. The note with it: biotin-labeled peptide 0-256 µM, 4 °C, 1 h, CD44v6-low cells. Here is the method: as §2, §3, §4, §5, §6
Series [6] has as its system c-Met and Erk phosphorylation in 4T1 cells. As to the kind of experiment: Western blotting of HGF-induced c-Met and Erk phosphorylation, 4T1. The class given is cell-based, mouse. The note with it: peptide pre-treatment 10 min, HGF 25 ng/mL 10 min. Here is the method: as §1
Supplementary Figure S3. NLN and NEW inhibit HGF-induced c-Met phosphorylation and cell migration and invasion in 4T1 breast tumor cells. (A) Western blotting analysis of c-Met and Erk phosphorylation in 4T1 cells pretreated or not with 5 μg/mL NLN and NEW for 10 min and treated with 25 ng/mL HGF for 10 min. (B) The quantification of c-Met and Erk […]
(1 picture or pasted object on this page, not shown here)

The mark [7] stands for this setting: peptide 14.2 mg/kg i.v. thrice weekly for three weeks.

Residues, ends and D or L forms follow the SMILES beside them.

Usually Kd stands for the concentration at which binding is half-saturated. Higher therefore signals weaker binding.

T1 sequence (P16070 21-361 isoform P16070-12 limits assumed): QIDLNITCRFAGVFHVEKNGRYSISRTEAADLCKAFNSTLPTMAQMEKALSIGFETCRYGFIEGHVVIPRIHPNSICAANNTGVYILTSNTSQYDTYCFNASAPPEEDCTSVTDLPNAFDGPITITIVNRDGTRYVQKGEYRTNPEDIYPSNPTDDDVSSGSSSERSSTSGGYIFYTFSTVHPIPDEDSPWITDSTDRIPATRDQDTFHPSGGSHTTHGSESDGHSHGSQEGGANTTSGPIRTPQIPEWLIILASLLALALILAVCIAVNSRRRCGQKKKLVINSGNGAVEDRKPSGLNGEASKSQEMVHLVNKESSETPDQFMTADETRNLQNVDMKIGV

With `CC(C)C[C@H](NC(=O)[C@H](CCC(N)=O)NC(=O)[C@H](Cc1c[nH]c2ccccc12)NC(=O)[C@H](CCC(=O)O)NC(=O)[C@H](CC(N)=O)NC(=O)[C@@H](N)CS)C(=O)N[C@@H](CCCCN)C(=O)N[C@@H](CO)C(=O)N[C@@H](CS)C(=O)O` [NEW] (H-CNEWQLKSC-OH; N-terminus and C-terminus assumed), the “binding to the CD44 protein” value in series [1] is given as “did not bind”. The “HGF-induced phosphorylation of c-Met and Erk, MDA-MB231” value in series [2] is on record as “inhibited”. In addition, in series [3], the “tumor growth, lung metastasis, survival rate and TUNEL-stained apoptosis, peptide combined with crizotinib 12.5 mg/kg” value is “more efficiently than crizotinib alone”; the “primary tumor growth, lung metastasis and survival, peptide combined with crizotinib 25 mg/kg” value is recorded as “more efficiently than a single treatment”; the “hematologic parameters and liver and kidney functional marker levels” value is “not significantly changed or remained within normal ranges”. In series [3] (setting [7]), the body weight entry is given as “little effect”, the survival rate entry is on record as “increased”, the “volumes of primary tumors” value was “decreased” and the “weights of isolated primary tumors” value is “decreased”. In series [3] (setting [7]), the “luminescence signals and total photon flux from the whole body” value is “decreased”; the “number of lung tumor nodules” value was “reduced number”. The Kd in series [4] is 29 ± 16 µM. The molecule also showed a Kd in series [5] of 122 ± 115 µM. In addition, in series [6], the “HGF-induced phosphorylation of c-Met and Erk, 4T1” value is “inhibited”.
Take `CC[C@H](C)[C@H](NC(=O)[C@@H](NC(=O)[C@H](CC(N)=O)NC(=O)[C@H](CC(C)C)NC(=O)[C@H](CC(N)=O)NC(=O)[C@@H](N)CS)[C@@H](C)O)C(=O)N[C@@H](CC(=O)O)C(=O)N[C@H](C(=O)N[C@@H](CS)C(=O)O)[C@@H](C)O` [NLN] (H-CNLNTIDTC-OH; N-terminus and C-terminus assumed): the “binding to the CD44 protein” value in series [1] was “did not bind”. Also, the “HGF-induced phosphorylation of c-Met and Erk, MDA-MB231” value in series [2] was “inhibited”. Also, in series [3], the “tumor growth, lung metastasis, survival rate and TUNEL-stained apoptosis, peptide combined with crizotinib 12.5 mg/kg” value is “more efficiently than crizotinib alone”; the “primary tumor growth, lung metastasis and survival, peptide combined with crizotinib 25 mg/kg” value is given as “more efficiently than a single treatment”; the “hematologic parameters and liver and kidney functional marker levels” value is reported as “not significantly changed or remained within normal ranges”. Moreover, in series [3] (setting [7]), the body weight entry is recorded as “little effect”, the monocyte population entry is recorded as “decreased below the normal ranges”, the survival rate entry is “increased” and the “volumes of primary tumors” value is given as “decreased”. In series [3] (setting [7]), the “weights of isolated primary tumors” value was “decreased”; the “luminescence signals and total photon flux from the whole body” value is “decreased”; the “number of lung tumor nodules” value was “reduced number”. In series [4], this molecule yielded a Kd of 17 ± 7 µM. Further, the affinity in series [5], expressed as Kd, was 300 ± 250 µM. In addition, the “HGF-induced phosphorylation of c-Met and Erk, 4T1” value in series [6] is “inhibited”.
